Measured values from US20220170949A1, “SYSTEM AND METHOD FOR DETECTING THERAPEUTIC AGENTS TO MONITOR ADHERENCE TO A TREATMENT REGIMEN” (ORASURE TECHNOLOGIES, INC., priority 2019, published 2022).
Like-named read-outs stand apart in the source and are kept apart here.

Assays:
[1] = test system: HIV; conditions: PBMCs (Anderson 2012); cited from earlier work
[2] = in vivo, po
Description: Antiretroviral concentrations in whole blood or plasma are potentially useful in monitoring adherence to PrEP.

[3] = test system: HIV-1; conditions: cited from earlier work
[4] = in vivo; cited from earlier work

SMILES	intracellular concentration associated with a 90% reduction in HIV acquisition relative to the placebo arm [1]	window of medication usage reflected by TFV detection in whole blood or plasma [2]	HIV-1 risk reduction corresponding to intracellular tenofovir concentrations ([3]; 2 doses per week) [%]	HIV-1 risk reduction corresponding to intracellular tenofovir concentrations ([3]; 4 doses per week) [%]	HIV-1 risk reduction corresponding to intracellular tenofovir concentrations ([3]; 7 doses per week) [%]	intracellular half-life [4] [h]	plasma half-life [4] [h]
CC(Cn1cnc2c(N)ncnc21)OCP(=O)(O)OP(=O)(O)OP(=O)(O)O (stereo in doubt) [tenofovir-diphosphate]	16 fmol per million peripheral blood mononuclear cells (PBMCs)						
C[C@H](Cn1cnc2c(N)ncnc21)OCP(=O)(O)O [Tenofovir]		one to at least seven days	76	96	99	150	17
